Experimental data taken from patent publication US20030130343A1, “Fat accumulation-modulating compounds” (AdipoGenix, Inc., priority 2001, published 2003).

How the values were obtained:
[1] = tested on: primary human subcutaneous preadipocytes; assay: High throughput screening of compound efficacy: fluorescent fatty acid (FA*) accumulation in differentiating human preadipocytes; assay type: cell-based; parameters: key to Relative Efficacy: “+++” designates a greater in vitro efficacy than “++”; “++”, which in turn is greater than “+”; “+”; conditions: for Relative Efficacy: inhibitors of fatty acid accumulation into differentiating adipocytes at a concentration of 100 nM
Method: Protocol for High Throughput Screening of Compound Efficacy on Human Preadipocytes Up to five cell strains of banked primary human subcutaneous preadipocytes were used for high throughput screening. […] Cells were split up to four times to produce enough cells for screening. […] On day zero, cells were incubated with growth medium to induce differentiation of preadipocytes into adipocytes (characterized by cell rounding, formation of triglyceride droplets, etc.). Growth medium was changed every three days. On day six, cells were incubated in triplicate with test compounds at various concentrations. […] Cell plates were prewashed with FAB+, and then FA* was added. Cells were incubated with FA* for four hours, and then postwashed with FAB+ to remove unincorporated FA*. Cellular fluorescence of triglyceride droplets that have incorporated FA* was measured on a microplate reader. Efficacy of compounds on inhibiting FA* accumulation was determined by the following calculation: […]

mice = conditions: single injections; cited from earlier work
[2] = tested on: primary human subcutaneous preadipocytes; conditions: at 10 μM; Alamar Blue
Method: Subsequent determination of compound toxicity was measured by incubating cells with Alamar Blue (an indicator of cellular viability, purchased from BioSource International Inc., Camarillo, Calif., USA) for three to four hours before measuring fluorescence of the reduced compound. Toxicity of compounds was determined by the following calculation:
% Toxicity=100−(sample fluorescence/negative control fluorescence*100)

O=C(Nc1ccncc1)c1cc([N+](=O)[O-])ccc1Cl [AGX-0104]
Relative Efficacy [1]: +++

O=C(Nc1cccnc1)c1cc([N+](=O)[O-])ccc1Cl [AGX-0105]
Relative Efficacy [1]: +++

Cc1cc(NC(=O)c2cc([N+](=O)[O-])ccc2Cl)no1 [AGX-0114]
Relative Efficacy [1]: ++

C=C1C(=O)OC(CCCCCCCC)C1C(=O)O (stereo not drawn) [C75]
ate less than untreated littermates consumed (mice): 90%

N#CC(C#N)=NNc1ccc(OC(F)(F)F)cc1 [FCCP, carbonyl cyanide p-(trifluoromethoxy)-phenylhydrazone]
Emax at 10 µM ([1]; Homo sapiens, at 10 μM, read-out: % Efficacy (inhibiting FA* accumulation)): 100% | % Toxicity [2]: 100%
